Laboratory results from patent publication US20110196383A1, “Atherosclerotic Plaque Dissolution Composition” (Atherolysis Medical, Inc, priority 2009, published 2011).
Entries after “also recorded” stand apart in the source; their conditions may differ.

System: atherosclerotic plaque of an atherosclerotic cadaveric superficial femoral artery
Assay: ex vivo dissolution of atherosclerotic plaque in cadaveric superficial femoral artery
Design: species or system human
Details: for dissolution of atherosclerotic plaque: exposure about ten minutes to about thirty minutes
[1] = about 98% by weight in the chemical composition, about 2% base composition
[2] = about 2.5% by weight, about 97% base composition
[3] = about 90% by weight, about 10% base composition
[4] = about 20% by weight, about 80% base composition such as normal saline
[5] = about 99.9% by weight in the chemical composition, about 0.1% base composition

ClCCl [dichloromethane]
dissolution of atherosclerotic plaque (about 92% by weight, about 8% base composition): showed effectiveness in dissolving atherosclerotic plaque
dissolution of atherosclerotic plaque (about 99.1% by weight, about 0.9% base composition): dissolution of atherosclerotic plaque was noted

CCCCCCCC(=O)O [octanoic acid]
dissolution of atherosclerotic plaque [1]: showed effectiveness in dissolving atherosclerotic plaque; also recorded: dissolution of atherosclerotic plaque was noted

2-octane [Example 2-octane]
dissolution of atherosclerotic plaque [1]: showed effectiveness in dissolving atherosclerotic plaque; also recorded: dissolution of atherosclerotic plaque was noted

CCO [ethanol]
dissolution of atherosclerotic plaque (about 94% by weight, about 6% base composition): dissolution of atherosclerotic plaque was noted
effectiveness in dissolving atherosclerotic plaque (concentration of about 94% to about 96%): showed effectiveness in dissolving atherosclerotic plaque

CC(=O)Oc1ccccc1C(=O)O [acetylsalicylic acid, reference compound]
dissolution of atherosclerotic plaque (about 12% by weight in the chemical composition, about 88% base composition): showed effectiveness in dissolving atherosclerotic plaque; also recorded: dissolution of atherosclerotic plaque was noted

Oc1ccc(/C=C/c2cc(O)cc(O)c2)cc1 [trans-resveratrol]
dissolution of atherosclerotic plaque [2]: dissolution of atherosclerotic plaque was noted

S=C=S [carbon disulfide]
dissolution of atherosclerotic plaque [3]: showed effectiveness in dissolving atherosclerotic plaque; also recorded: dissolution of atherosclerotic plaque was noted

ClC(Cl)Cl [chloroform]
dissolution of atherosclerotic plaque (about 95% by weight, about 5% base composition): showed effectiveness in dissolving atherosclerotic plaque; also recorded: dissolution of atherosclerotic plaque was noted

CC(=O)O [acetic acid]
dissolution of atherosclerotic plaque (about 50% by weight, about 50% base composition): dissolution of atherosclerotic plaque was noted

CC(O)C(=O)O (centres unmarked) [lactic acid]
dissolution of atherosclerotic plaque [1]: dissolution of atherosclerotic plaque was noted

Oc1ccc(/C=C/c2cc(O)cc(O)c2)cc1 [resveratrol, 3,5,4′-trihydroxy-trans-stilbene]
effectiveness in dissolving atherosclerotic plaque (dissolved in water or an organic solvent in a concentration of about 0.1% to about 99.9%): showed effectiveness in dissolving atherosclerotic plaque

Oc1ccc(/C=C\c2cc(O)cc(O)c2)cc1 [cis-resveratrol]
dissolution of atherosclerotic plaque [2]: dissolution of atherosclerotic plaque was noted

OCC(O)CO [glycerine]
dissolution of atherosclerotic plaque (about 100% by weight in the chemical composition): showed effectiveness in dissolving atherosclerotic plaque; also recorded: dissolution of atherosclerotic plaque was noted

O=C(O)[C@H](O)[C@@H](O)[C@H](O)[C@H](O)CO [gluconic acid]
dissolution of atherosclerotic plaque (about 80% by weight, about 20% base composition): dissolution of atherosclerotic plaque was noted

CC(C)c1nc(N(C)S(C)(=O)=O)nc(-c2ccc(F)cc2)c1/C=C/[C@@H](O)C[C@@H](O)CC(=O)O [rosuvastatin, reference compound]
dissolution of atherosclerotic plaque [4]: dissolution of atherosclerotic plaque was noted

CO [methanol]
dissolution of atherosclerotic plaque [5]: showed effectiveness in dissolving atherosclerotic plaque; also recorded: dissolution of atherosclerotic plaque was noted

Cc1ccccc1 [toluene]
dissolution of atherosclerotic plaque (about 40% by weight, about 60% base composition): showed effectiveness in dissolving atherosclerotic plaque; also recorded: dissolution of atherosclerotic plaque was noted

O=C1[C@H](CC[C@H](O)c2ccc(F)cc2)[C@@H](c2ccc(O)cc2)N1c1ccc(F)cc1 [ezetimibe, reference compound]
dissolution of atherosclerotic plaque [4]: dissolution of atherosclerotic plaque was noted

CCCCCCCCCCCC[N+](C)(C)CC(O)CS(=O)(=O)[O-] (centres unmarked) [lauryldimethyl hydroxysultaine]
dissolution of atherosclerotic plaque [3]: dissolution of atherosclerotic plaque was noted

CC(O)CO (centres unmarked) [propylene glycol]
dissolution of atherosclerotic plaque [5]: showed effectiveness in dissolving atherosclerotic plaque; also recorded: dissolution of atherosclerotic plaque was noted

C=C(C)[C@H]1CC=C(C)CC1 [d-limonene]
dissolution of atherosclerotic plaque [1]: showed effectiveness in dissolving atherosclerotic plaque; also recorded: dissolution of atherosclerotic plaque was noted
